# pKd: −log10 of the molar value.
# How the values were obtained:
# AMPK alpha1/beta2/gamma1 = AMPK alpha1/beta2/gamma1 (Homo sapiens, UniProt O43741+P54619+Q13131); assay: Binding affinity to human recombinant N-terminal AVI-tagged phosphorylated AMPK alpha1beta2gamma1 expressed in Escherichia coli BL21 cells after 1 to 10 mins by biolayer interferometry
# HEK293 = assay: Selectivity ratio of FLAG-tagged wild type AMPK beta1 (unknown origin) expressed in HEK293 cells over FLAG-tagged wild type AMPK beta2 (unknown origin) expressed in HEK293 cells; type: cell-based; conditions: Homo sapiens
# [1] = molecular target: AMP-activated protein kinase (AMPK) alpha-1/beta-1/gamma-1 (Homo sapiens, UniProt P54619+Q13131+Q9Y478); assay: Binding affinity to human recombinant N-terminal AVI-tagged phosphorylated AMPK alpha1beta1gamma1 expressed in Escherichia coli BL21 cells after 1 to 10 mins by biolayer interferometry
# AMP-activated protein kinase (AMPK) alpha-1/beta-1/gamma-1, sequence (P54619 whole entry): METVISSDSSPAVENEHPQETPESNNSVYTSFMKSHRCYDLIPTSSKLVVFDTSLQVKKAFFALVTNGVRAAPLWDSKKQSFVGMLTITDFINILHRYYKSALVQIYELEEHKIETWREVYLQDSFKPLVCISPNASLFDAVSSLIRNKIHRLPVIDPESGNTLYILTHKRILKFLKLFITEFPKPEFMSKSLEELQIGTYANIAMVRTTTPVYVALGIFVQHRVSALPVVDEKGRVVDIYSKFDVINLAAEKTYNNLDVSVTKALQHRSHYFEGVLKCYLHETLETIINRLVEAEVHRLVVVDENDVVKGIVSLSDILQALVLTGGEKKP
# AMP-activated protein kinase (AMPK) alpha-1/beta-1/gamma-1, sequence (Q9Y478 whole entry): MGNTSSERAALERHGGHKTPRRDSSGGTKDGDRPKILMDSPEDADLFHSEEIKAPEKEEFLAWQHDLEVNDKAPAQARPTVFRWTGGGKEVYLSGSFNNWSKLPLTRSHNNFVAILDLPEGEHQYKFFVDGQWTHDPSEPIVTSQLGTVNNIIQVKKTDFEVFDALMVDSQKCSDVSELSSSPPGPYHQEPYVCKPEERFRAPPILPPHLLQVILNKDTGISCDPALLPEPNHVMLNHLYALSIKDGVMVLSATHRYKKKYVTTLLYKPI
# AMP-activated protein kinase (AMPK) alpha-1/beta-1/gamma-1, sequence (Q13131 whole entry): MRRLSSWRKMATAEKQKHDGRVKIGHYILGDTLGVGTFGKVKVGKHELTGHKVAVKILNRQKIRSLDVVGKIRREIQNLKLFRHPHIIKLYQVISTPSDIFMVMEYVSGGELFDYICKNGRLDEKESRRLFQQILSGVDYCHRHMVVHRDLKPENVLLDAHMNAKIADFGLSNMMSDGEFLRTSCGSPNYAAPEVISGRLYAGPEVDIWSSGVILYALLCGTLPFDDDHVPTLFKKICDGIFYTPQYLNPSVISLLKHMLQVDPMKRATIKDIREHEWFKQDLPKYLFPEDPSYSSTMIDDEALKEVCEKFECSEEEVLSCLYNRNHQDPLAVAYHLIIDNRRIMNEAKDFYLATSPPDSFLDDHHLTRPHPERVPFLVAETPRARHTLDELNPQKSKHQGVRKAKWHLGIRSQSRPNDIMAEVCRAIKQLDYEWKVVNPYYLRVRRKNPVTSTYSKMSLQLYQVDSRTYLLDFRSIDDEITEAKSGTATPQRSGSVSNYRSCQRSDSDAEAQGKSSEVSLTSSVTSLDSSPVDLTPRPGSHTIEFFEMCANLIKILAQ
# AMPK alpha1/beta2/gamma1, sequence (O43741 whole entry): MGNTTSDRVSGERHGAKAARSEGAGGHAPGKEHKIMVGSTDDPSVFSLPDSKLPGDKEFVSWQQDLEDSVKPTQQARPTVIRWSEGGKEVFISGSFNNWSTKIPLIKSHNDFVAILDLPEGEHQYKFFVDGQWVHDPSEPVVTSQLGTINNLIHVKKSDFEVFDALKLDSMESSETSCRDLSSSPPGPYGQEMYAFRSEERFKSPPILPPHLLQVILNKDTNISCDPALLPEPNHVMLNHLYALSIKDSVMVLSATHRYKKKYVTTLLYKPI
# AMPK alpha1/beta2/gamma1, sequence (P54619 whole entry): as the sequence (P54619 whole entry) above
# AMPK alpha1/beta2/gamma1, sequence (Q13131 whole entry): as the sequence (Q13131 whole entry) above
smiles,measurement,setting,value
N#Cc1c(O)c2c(-c3ccc(-c4ccccc4O)cc3)csc2[nH]c1=O,pKd,AMPK alpha1/beta2/gamma1,4.84
same,Selectivity ratio,HEK293,30
same,pKd,[1],6.29
